# Source: US11311522B1 (Cavion, Inc., priority 2018, dated 2022)
# Test: PN002/Part II: safety and tolerability
# Type: in vivo
# From the text: Clinical safety was monitored throughout the study by adverse events, clinical laboratory tests, vital signs, ECGs, and ECG telemetry.
# The subject was not on telemetry at the time.
compound,measurement,setting,value
CC(C)c1ccc(CC(=O)N[C@H](C)c2ccc(OCC(F)(F)F)cn2)cc1 [CX-8998],Abnormal physical sensation,2 mg/d,0 n %
same,Abnormal sensation of limbs,2 mg/d,0 n %
same,Anger,2 mg/d,0 n %
same,Application site erythema,2 mg/d,0 n %
same,Application site pruritus,2 mg/d,0 n %
same,At least 1 adverse event,2 mg/d,4 (66.7) n %
same,Backache,2 mg/d,0 n %
same,Clamminess,2 mg/d,0 n %
same,Daydreaming,2 mg/d,0 n %
same,Disorientation,2 mg/d,1 (16.7) n %
same,Dizziness,2 mg/d,0 n %
same,Drowsiness,2 mg/d,0 n %
same,Dyspepsia,2 mg/d,0 n %
same,Euphoric mood,2 mg/d,0 n %
same,Eye Disorders,2 mg/d,0 n %
same,Feeling drunk,2 mg/d,0 n %
same,Feeling of relaxation,2 mg/d,0 n %
same,Floating feeling,2 mg/d,0 n %
same,Fuzzy head,2 mg/d,0 n %
same,Gastrointestinal Disorders,2 mg/d,2 (33.3) n %
same,Hallucination,2 mg/d,0 n %
same,Headache,2 mg/d,1 (16.7) n %
same,Heaviness of head,2 mg/d,0 n %
same,Hyperactivity,2 mg/d,0 n %
same,Hypoaesthesia mouth,2 mg/d,0 n %
same,Increased state of alertness,2 mg/d,0 n %
same,Intermittent headache,2 mg/d,0 n %
same,Lethargy,2 mg/d,0 n %
same,Lightheadedness,2 mg/d,0 n %
same,Mood altered,2 mg/d,0 n %
same,Mood change,2 mg/d,0 n %
same,Musculoskeletal and Connective Tissue Disorders,2 mg/d,2 (33.3) n %
same,Nausea,2 mg/d,2 (33.3) n %
same,Nervous System Disorders,2 mg/d,1 (16.7) n %
same,Paraesthesia generalized,2 mg/d,0 n %
same,Paranoia,2 mg/d,0 n %
same,Psychiatric Disorders,2 mg/d,1 (16.7) n %
same,"Respiratory, Thoracic and Mediastinal Disorders",2 mg/d,1 (16.7) n %
same,Sedation,2 mg/d,0 n %
same,Sensation of heaviness,2 mg/d,0 n %
same,Sensation of pressure,2 mg/d,0 n %
same,Skin and Subcutaneous Tissue Disorders,2 mg/d,0 n %
same,Sleep difficult,2 mg/d,0 n %
same,Sleep disturbance,2 mg/d,0 n %
same,Somnolence,2 mg/d,0 n %
same,Sore throat,2 mg/d,1 (16.7) n %
same,Spaced out,2 mg/d,0 n %
same,Syncope,2 mg/d,1 (16.7) n %
same,Taste change,2 mg/d,0 n %
same,Temporal disorientation,2 mg/d,0 n %
same,Tingling,2 mg/d,1 (16.7) n %
same,Tiredness,2 mg/d,1 (16.7) n %
same,Visual disturbance,2 mg/d,0 n %
same,Vivid dreams,2 mg/d,0 n %
same,Vomiting,2 mg/d,1 (16.7) n %
same,Abnormal physical sensation,4 mg/d,0 n %
same,Abnormal sensation of limbs,4 mg/d,0 n %
same,Anger,4 mg/d,0 n %
same,Application site erythema,4 mg/d,0 n %
same,Application site pruritus,4 mg/d,0 n %
same,At least 1 adverse event,4 mg/d,5 (83.3) n %
same,Backache,4 mg/d,0 n %
same,Clamminess,4 mg/d,0 n %
same,Daydreaming,4 mg/d,0 n %
same,Disorientation,4 mg/d,0 n %
same,Dizziness,4 mg/d,0 n %
same,Drowsiness,4 mg/d,2 (33.3) n %
same,Dyspepsia,4 mg/d,0 n %
same,Euphoric mood,4 mg/d,1 (16.7) n %
same,Eye Disorders,4 mg/d,1 (16.7) n %
same,Feeling drunk,4 mg/d,0 n %
same,Feeling of relaxation,4 mg/d,4 (66.7) n %
same,Floating feeling,4 mg/d,1 (16.7) n %
same,Fuzzy head,4 mg/d,1 (16.7) n %
same,Gastrointestinal Disorders,4 mg/d,1 (16.7) n %
same,Hallucination,4 mg/d,0 n %
same,Headache,4 mg/d,3 (50.0) n %
same,Heaviness of head,4 mg/d,0 n %
same,Hyperactivity,4 mg/d,0 n %
same,Hypoaesthesia mouth,4 mg/d,0 n %
same,Increased state of alertness,4 mg/d,1 (16.7) n %
same,Intermittent headache,4 mg/d,1 (16.7) n %
same,Lethargy,4 mg/d,1 (16.7) n %
same,Lightheadedness,4 mg/d,4 (66.7) n %
same,Mood altered,4 mg/d,0 n %
same,Mood change,4 mg/d,0 n %
same,Musculoskeletal and Connective Tissue Disorders,4 mg/d,0 n %
same,Nausea,4 mg/d,0 n %
same,Nervous System Disorders,4 mg/d,5 (83.3) n %
same,Paraesthesia generalized,4 mg/d,0 n %
same,Paranoia,4 mg/d,0 n %
same,Psychiatric Disorders,4 mg/d,3 (50.0) n %
same,"Respiratory, Thoracic and Mediastinal Disorders",4 mg/d,0 n %
same,Sedation,4 mg/d,0 n %
same,Sensation of heaviness,4 mg/d,0 n %
same,Sensation of pressure,4 mg/d,0 n %
same,Skin and Subcutaneous Tissue Disorders,4 mg/d,1 (16.7) n %
same,Sleep difficult,4 mg/d,0 n %
same,Sleep disturbance,4 mg/d,1 (16.7) n %
same,Somnolence,4 mg/d,1 (16.7) n %
same,Sore throat,4 mg/d,0 n %
same,Spaced out,4 mg/d,0 n %
same,Syncope,4 mg/d,0 n %
same,Taste change,4 mg/d,0 n %
same,Temporal disorientation,4 mg/d,0 n %
same,Tingling,4 mg/d,0 n %
same,Tiredness,4 mg/d,2 (33.3) n %
same,Visual disturbance,4 mg/d,1 (16.7) n %
same,Vivid dreams,4 mg/d,2 (33.3) n %
same,Vomiting,4 mg/d,0 n %
same,Abnormal physical sensation,8 mg/d,0 n %
same,Abnormal sensation of limbs,8 mg/d,0 n %
same,Anger,8 mg/d,0 n %
same,Application site erythema,8 mg/d,3 (50.0) n %
same,Application site pruritus,8 mg/d,1 (16.7) n %
same,At least 1 adverse event,8 mg/d,6 (100) n %
same,Backache,8 mg/d,0 n %
same,Clamminess,8 mg/d,1 (16.7) n %
same,Daydreaming,8 mg/d,1 (16.7) n %
same,Disorientation,8 mg/d,0 n %
same,Dizziness,8 mg/d,0 n %
same,Drowsiness,8 mg/d,1 (16.7) n %
same,Dyspepsia,8 mg/d,2 (33.3) n %
same,Euphoric mood,8 mg/d,2 (33.3) n %
same,Eye Disorders,8 mg/d,2 (33.3) n %
same,Feeling drunk,8 mg/d,0 n %
same,Feeling of relaxation,8 mg/d,1 (16.7) n %
same,Floating feeling,8 mg/d,2 (33.3) n %
same,Fuzzy head,8 mg/d,1 (16.7) n %
same,Gastrointestinal Disorders,8 mg/d,3 (50.0) n %
same,Hallucination,8 mg/d,0 n %
same,Headache,8 mg/d,5 (83.3) n %
same,Heaviness of head,8 mg/d,0 n %
same,Hyperactivity,8 mg/d,2 (33.3) n %
same,Hypoaesthesia mouth,8 mg/d,0 n %
same,Increased state of alertness,8 mg/d,1 (16.7) n %
same,Intermittent headache,8 mg/d,1 (16.7) n %
same,Lethargy,8 mg/d,1 (16.7) n %
same,Lightheadedness,8 mg/d,4 (66.7) n %
same,Mood altered,8 mg/d,1 (16.7) n %
same,Mood change,8 mg/d,2 (33.3) n %
same,Musculoskeletal and Connective Tissue Disorders,8 mg/d,1 (16.7) n %
same,Nausea,8 mg/d,1 (16.7) n %
same,Nervous System Disorders,8 mg/d,6 (100) n %
same,Paraesthesia generalized,8 mg/d,1 (16.7) n %
same,Paranoia,8 mg/d,0 n %
same,Psychiatric Disorders,8 mg/d,3 (50.0) n %
same,"Respiratory, Thoracic and Mediastinal Disorders",8 mg/d,3 (50.0) n %
same,Sedation,8 mg/d,2 (33.3) n %
same,Sensation of heaviness,8 mg/d,1 (16.7) n %
same,Sensation of pressure,8 mg/d,2 (33.3) n %
same,Skin and Subcutaneous Tissue Disorders,8 mg/d,1 (16.7) n %
same,Sleep difficult,8 mg/d,0 n %
same,Sleep disturbance,8 mg/d,0 n %
same,Somnolence,8 mg/d,2 (33.3) n %
same,Sore throat,8 mg/d,1 (16.7) n %
same,Spaced out,8 mg/d,1 (16.7) n %
same,Syncope,8 mg/d,0 n %
same,Taste change,8 mg/d,1 (16.7) n %
same,Temporal disorientation,8 mg/d,2 (33.3) n %
same,Tingling,8 mg/d,1 (16.7) n %
same,Tiredness,8 mg/d,3 (50.0) n %
same,Visual disturbance,8 mg/d,1 (16.7) n %
same,Vivid dreams,8 mg/d,2 (33.3) n %
same,Vomiting,8 mg/d,1 (16.7) n %
same,Abnormal physical sensation,12 mg/d,0 n %
